Measured values taken from US12502382B2, “EPAC1 inhibitors for the treatment of idiopathic pulmonary fibrosis” (INSERM (Institut National de la Santé et de la Recherche …, priority 2019, dated 2025).

Key:
[1] = prevents its use for in vivo applications; cited from earlier work
[2] = tested on: Normal human lung fibroblast (NHLF); experiment: BrdU proliferation assay in normal human lung fibroblasts; assay type: cell-based; details: TGFβ treatment and serum stimulation (0.1% or 5% FBS), 48 hours, inhibitor 20 μM
Protocol: (§1) Cell Culture. Normal human lung fibroblast (NHLF) and lung fibroblast from IPF patients were purchased from Lonza, Inc. (Allendale, NJ) and cultured as recommended in FGM-2 medium supplemented with 5% fetal bovine serum (FBS) in 5% CO2 at 37° C. and passaged at the confluence. All the cell lines were tested by the manufacturers and negative for HIV-1, HBV, HCV, mycoplasma, bacteria, yeast, and fungi.
(§2) Pharmacological treatment. Cells were seeded at 250,000 cells/well in 6-well plates and maintained in a 37° C. incubator with 5% CO2 for 24 hrs prior to use. Cells were treated with TGF-β1 (2 ng/mL; 48 hrs) alone or in combination with either Epac1 inhibitor CE3F4 (20 μM; 48 hrs) or AM-001 (20 μM; 48 hrs).
(§3) The proliferation of NHLFs was measured by 5-bromo-2′-deoxyuridine (BrdU) incorporation using the Cell Proliferation ELISA, BrdU (colorimetric) assay (Roche, Indianapolis, IN), according to the manufacturer's instructions.

[3] = tested on: fibrosis markers (COL1, COL3, CTGF, TGFβ) in NHLF cells; experiment: qPCR of TGF-β1-induced fibrosis marker mRNA in NHLF; assay type: cell-based, human; details: TGF-β1 2 ng/mL 48 hrs, inhibitor 20 μM 48 hrs
Protocol: as §1, §2
(§4) Total RNA was isolated using TRIzol™ (Invitrogen) and purified using RNeasy mini columns (Qiagen), according to the manufacturer's instructions. The cDNA synthesis kit (Applied Biosystems, Foster City, CA) was used to synthesized cDNA, as described by the manufacturer. Quantitative RT-PCR was performed using the PerfeCTa SYBR™ Green FastMix kit (Quantabio, Beverly, MA) and specific primers against the indicated genes, according to the manufacturer's instructions. Fold changes in gene expression were determined using the relative comparison method with normalization to GAPDH as an internal loading control.

Epac2 = Epac2 (Homo sapiens, UniProt Q8WZA2); details: Laudette et al. 2019; cited from earlier work
Epac1 = biological target: T1, Epac1 (Homo sapiens, UniProt O95398); details: Laudette et al. 2019; cited from earlier work
T1 sequence (O95398 1-923): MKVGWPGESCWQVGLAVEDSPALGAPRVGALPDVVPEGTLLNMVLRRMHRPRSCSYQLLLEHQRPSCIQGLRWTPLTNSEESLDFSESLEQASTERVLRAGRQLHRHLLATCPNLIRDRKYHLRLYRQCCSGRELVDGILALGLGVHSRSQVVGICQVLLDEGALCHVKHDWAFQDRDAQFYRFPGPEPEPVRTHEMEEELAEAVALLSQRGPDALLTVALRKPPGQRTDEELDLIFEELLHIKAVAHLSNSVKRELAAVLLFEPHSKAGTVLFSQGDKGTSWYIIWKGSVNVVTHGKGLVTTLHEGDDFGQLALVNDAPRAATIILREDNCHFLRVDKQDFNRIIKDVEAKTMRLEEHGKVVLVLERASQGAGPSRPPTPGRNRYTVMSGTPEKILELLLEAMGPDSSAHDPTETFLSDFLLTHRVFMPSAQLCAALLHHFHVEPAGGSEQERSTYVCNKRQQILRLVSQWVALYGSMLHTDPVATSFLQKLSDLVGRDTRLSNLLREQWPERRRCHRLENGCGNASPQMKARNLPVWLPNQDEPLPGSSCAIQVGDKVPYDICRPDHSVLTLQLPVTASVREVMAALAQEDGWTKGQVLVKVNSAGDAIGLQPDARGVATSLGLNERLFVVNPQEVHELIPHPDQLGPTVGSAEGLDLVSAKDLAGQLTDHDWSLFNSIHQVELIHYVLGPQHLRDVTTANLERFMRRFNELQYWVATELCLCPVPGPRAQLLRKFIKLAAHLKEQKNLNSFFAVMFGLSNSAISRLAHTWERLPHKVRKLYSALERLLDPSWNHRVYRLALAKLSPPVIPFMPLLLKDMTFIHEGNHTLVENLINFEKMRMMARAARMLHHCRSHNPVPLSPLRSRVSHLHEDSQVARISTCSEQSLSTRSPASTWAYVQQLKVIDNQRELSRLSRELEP

IPF fibroblasts [4] = experiment: BrdU proliferation assay in IPF fibroblasts; assay type: cell-based, human; details: basal condition, preliminary data
Protocol: as §1, §3

[5] = tested on: mouse model of bleomycin-induced pulmonary fibrosis; experiment: Histology (Masson's trichrome, H&E, WGA) in bleomycin-induced pulmonary fibrosis mouse model; assay type: in vivo
Protocol: Intratracheal bleomycin animal model. […] Animals were anesthetized by IP injection of xylazine/ketamine and were secured to a tray in the supine position. After intubation, the board was tilted at 45 degrees, and the IA-1C Microsprayer tip (PennCentury, Wyndmoor, PA) was inserted through the lumen of the angiocath. Animals were subjected to a single intratracheal injection of BLM (50 μL; 4 U/Kg) for 28 days. The pharmacological inhibitor of Epac1, AM-001, was injected intraperitoneally every alternate day (10 mg/kg) for 2 weeks.
Hematoxylin & Eosin and Masson's trichrome staining. Lung tissue was harvested, inflated with PBS/OCT (50:50), and fixed (frozen in −80° C.) in OCT. Sections were cut to 8 μm and adhered to colorfrost glass slides (ThermoFisher). Lung tissue sections were stained with hematoxylin and eosin (H&E) and Masson's trichrome (Sigma-Aldrich) and visualized using light microscopy. The medial thickness and collagen deposition were then quantified using ImageJ software.
RV sections were fixed in 1% paraformaldehyde (PFA) and stained using fluorescence-tagged wheat germ agglutinin (WGA) (Invitrogen) overnight at 4° C. and imaged with on Zeiss Observer Z.1 microscope (Carl Zeiss) at ×160 magnification. The outlines of cardiac myocytes were traced, and the cardiomyocyte area was calculated using ImageJ software.

IPF fibroblasts [6] = experiment: qPCR of IL-6, α-SMA and FOXO3 mRNA in IPF fibroblasts; assay type: cell-based, human; details: 20 μM for 48 h
Protocol: as §1, §4

[7] = tested on: mouse model of bleomycin-induced pulmonary fibrosis; experiment: Hemodynamics and RV hypertrophy in bleomycin-induced pulmonary fibrosis mouse model; assay type: in vivo; details: 10 mg/kg i.p. every alternate day for 2 weeks
Protocol: Intratracheal bleomycin animal model. […] Animals were anesthetized by IP injection of xylazine/ketamine and were secured to a tray in the supine position. After intubation, the board was tilted at 45 degrees, and the IA-1C Microsprayer tip (PennCentury, Wyndmoor, PA) was inserted through the lumen of the angiocath. Animals were subjected to a single intratracheal injection of BLM (50 μL; 4 U/Kg) for 28 days.
Heart hemodynamic studies. The mice were anesthetized with (2-4%) isoflurane, intubated via tracheotomy, and mechanically ventilated with 1-2% isoflurane and oxygen (tidal volume, 6 mL/kg; respiratory rate, 100 breaths per minute). The thoracic cavity was opened, and the organs were accessed through a sternotomy. Once the pericardium was opened, and the heart was fully accessible, an ultrasonic flow probe (flow probe 2.5S176; Transonic Systems Inc., Ithaca, NY) was inserted into the RV to collect the right ventricular systolic pressure (RVSP). Hemodynamic data were recorded using a Scisense PV Control Unit (Scisense, Ontario, Canada).
Right Ventricular Weight Measurement. After the hemodynamic data were collected, the mice were harvested to collect the heart and lungs. […] The Fulton Index was calculated by the weight ratio of the RV weight to the LV plus septum weight (RV weight/LV+Septum weight) to specifically illustrate the RV hypertrophy. […]

IPF fibroblasts [8] = experiment: Immunoblot of phospho-SMAD2/3, phospho-STAT3, phospho-AKT in IPF fibroblasts; assay type: cell-based, human; details: IPF fibroblast
Protocol: as §1
SDS-PAGE and Immunoblot Analysis. Protein lysates were prepared using RIPA lysis buffer (Boston BioProducts) containing a Protease/Phosphatase Inhibitor Cocktail (Pierce). After centrifugation for 20 min at 15000×g, the protein concentrations were determined using a bicinchoninic acid (BCA) assay (Sigma-Aldrich). The proteins were then separated by SDS-polyacrylamide gel electrophoresis and transferred to polyvinylidene difluoride membranes. The membranes were blocked with 5% Skim milk and hybridized overnight at 4° C. with the following primary antibodies: Epac1 (Cell signaling), phospho-SMAD2/3 (Cell signaling), phospho-STAT3 (Cell signaling), phospho-AKT (Cell signaling), Total AKT (Cell signaling), and GAPDH (Thermofisher). The membranes were then incubated with the appropriate secondary HRP-conjugated antibody (Cell signaling) for 1 hour, and the blots were developed using the ECL System (Thermofisher).

protein kinase A (PKA) = details: Laudette et al. 2019; cited from earlier work
[9] = tested on: mouse model of bleomycin-induced pulmonary fibrosis; experiment: qPCR of marker mRNA in lung and RV tissues of bleomycin-challenged mice; assay type: in vivo
Protocol: Intratracheal bleomycin animal model. All of the animal experiments and handling were performed in accordance with NIH Guide for the Care and Use of Laboratory Animals. Animals were anesthetized by IP injection of xylazine/ketamine and were secured to a tray in the supine position. After intubation, the board was tilted at 45 degrees, and the IA-1C Microsprayer tip (PennCentury, Wyndmoor, PA) was inserted through the lumen of the angiocath. Animals were subjected to a single intratracheal injection of BLM (50 μL; 4 U/Kg) for 28 days. The pharmacological inhibitor of Epac1, AM-001, was injected intraperitoneally every alternate day (10 mg/kg) for 2 weeks.
as §4
Using a therapeutic strategy, mice were randomly allocated to a sham control-treated group that received intratracheal saline and PF group that received a single intratracheal aerosolization of BLM (4 U/kg). After 2 weeks, the BLM-challenged group was randomly assigned to receive either a vehicle or the Epac1 inhibitor AM-001 for two weeks (FIG. 4A). Vehicle or AM-001 was injected intraperitoneally every alternate day (10 mg/kg) for 2 weeks. […] To further investigate the potential therapeutic effect of Epac1 inhibition in PF, the interstitial fibrosis level and the vascular remodeling were next evaluated by histological analysis after 2 weeks of treatment. […] The inventors also measured by RT-qPCR the expression of several markers of fibrosis in the lung samples.

[10] = tested on: myocardial I/R injury and chronic β-AR activation; details: Laudette et al. 2019; cited from earlier work
[11] = BLM-challenged mice, 10 mg/kg i.p. every alternate day for 2 weeks
[12] = BLM+AM-001 vs BLM+vehicle, WT mice

Sequence of Epac2 (Q8WZA2 whole entry, species assumed): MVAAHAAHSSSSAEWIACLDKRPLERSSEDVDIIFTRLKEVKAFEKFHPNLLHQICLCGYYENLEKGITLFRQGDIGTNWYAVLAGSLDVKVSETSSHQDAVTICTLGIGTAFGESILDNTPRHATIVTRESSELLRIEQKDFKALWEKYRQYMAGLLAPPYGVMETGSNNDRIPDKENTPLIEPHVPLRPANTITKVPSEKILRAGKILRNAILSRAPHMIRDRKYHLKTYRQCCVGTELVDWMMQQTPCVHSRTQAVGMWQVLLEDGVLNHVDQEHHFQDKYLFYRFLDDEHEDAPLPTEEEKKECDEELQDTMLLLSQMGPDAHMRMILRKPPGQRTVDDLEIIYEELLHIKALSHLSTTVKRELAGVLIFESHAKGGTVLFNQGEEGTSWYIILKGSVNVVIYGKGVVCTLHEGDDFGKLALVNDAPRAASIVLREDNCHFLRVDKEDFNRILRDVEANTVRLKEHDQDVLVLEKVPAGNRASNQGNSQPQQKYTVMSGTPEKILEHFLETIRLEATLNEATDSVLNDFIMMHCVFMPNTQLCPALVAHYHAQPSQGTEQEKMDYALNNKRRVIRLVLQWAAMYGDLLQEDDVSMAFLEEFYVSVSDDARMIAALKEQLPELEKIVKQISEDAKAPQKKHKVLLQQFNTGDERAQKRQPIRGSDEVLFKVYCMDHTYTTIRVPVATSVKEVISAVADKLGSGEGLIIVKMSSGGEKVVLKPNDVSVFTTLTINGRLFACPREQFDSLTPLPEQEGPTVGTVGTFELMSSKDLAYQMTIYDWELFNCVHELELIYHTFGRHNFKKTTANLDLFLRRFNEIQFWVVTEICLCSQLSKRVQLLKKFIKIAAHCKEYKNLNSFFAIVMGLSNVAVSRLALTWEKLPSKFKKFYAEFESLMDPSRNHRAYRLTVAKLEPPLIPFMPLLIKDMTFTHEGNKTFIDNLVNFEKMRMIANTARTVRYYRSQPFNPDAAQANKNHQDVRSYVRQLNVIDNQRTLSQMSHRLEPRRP

CC1CCc2c(cc(Br)c(F)c2Br)N1C=O (stereo not shown) [CE3F4]
biodisponibility [1]: low
proliferation of NHLFs (BrdU) [2]: significantly decreased
mRNA expression of fibrosis markers (COL1, COL3, CTGF, TGFβ) induced by TGFβ [3]: impaired the induction

Nc1c(C(=O)Nc2ccc(F)cc2)sc2nc(-c3cccs3)cc(-c3ccccc3)c12 [AM-001, 3-amino-N-(4-fluorophenyl)-4-phenyl-6-(thiophen-2-yl)thieno[2,3-b]pyridine-2-carboxamide]
proliferation of NHLFs (BrdU) [2]: inhibited
antagonist effect on Epac2 (Epac2): no antagonist effect
inhibitory activity toward Epac1 (Epac1): selective inhibitory activity
IPF fibroblasts proliferation (BrdU) (IPF fibroblasts [4]): decrease
pulmonary vascular remodeling (medial thickness of distal pulmonary arteries) ([5]; BLM mice, vs vehicle-treated BLM mice): markedly diminished
cardiomyocyte size in RV (WGA staining) [5, 11]: reduction
interstitial and perivascular fibrosis (Masson's trichrome) ([5]; BLM-challenged mice, 10 mg/kg i.p. every alternate day for 2 weeks, vs vehicle): significantly decreased
FOXO3 mRNA expression (IPF fibroblasts [6]): restored
IL-6 mRNA expression (IPF fibroblasts [6]): attenuates
α-SMA mRNA expression (IPF fibroblasts [6]): attenuates
right ventricular systolic pressure (RVSP) ([7]; BLM 4 U/kg intratracheal, vs control group): reduction
RV hypertrophy (Fulton Index) ([7]; BLM-challenged mice): significantly decreased
mRNA expression of fibrosis markers (COL1, COL3, CTGF, TGFβ) induced by TGFβ [3]: impaired the upregulation
phosphorylation of AKT (IPF fibroblasts [8]): decreased
phosphorylation of SMAD2/3 (IPF fibroblasts [8]): decreased
phosphorylation of STAT3 (IPF fibroblasts [8]): decreased
antagonist effect on protein kinase A (PKA) activity (protein kinase A (PKA)): no antagonist effect
FGFR1 mRNA level [9, 12]: significantly decreasing
TNC mRNA level [9, 12]: trend decrease
upregulation of fibrosis and hypertrophic gene markers (ANP, BNP, β-MHC) in RV ([9]; BLM-challenged mice, RV tissues): compromised
COLI mRNA level in lung samples [9, 11]: markedly reduced
COLIII mRNA level in lung samples [9, 11]: markedly reduced
CTGF mRNA level in lung samples [9, 11]: markedly reduced
TGFβ mRNA level in lung samples [9, 11]: markedly reduced
cardioprotection against myocardial I/R injury and detrimental effects of chronic β-AR activation [10]: cardioprotective properties
